Results taken from patent publication US20240238242A1, “EGCG buccal tablet and use thereof” (priority 2023, published 2024).
Where “and” joins values, the source holds several entries; their conditions need not be identical. Identical values can stand only once. Like-named read-outs stand apart in the source and are kept apart here.

Columns and labels:
[1] = test system: Influenza A H1N1 virus (H1N1-PR8); type: cell-based; conditions: for inactivation efficiency against the virus: single experiment; for average inactivation efficiency against virus: three experiments
[2] = rats, intragastric decaffeinated green tea (DGT) 200 mg/kg; cited from earlier work
SARS-CoV-2 BJ-01 virus = experiment: In vitro effect of EGCG on SARS-CoV-2 BJ-01 infection (co-incubation, then Vero-E6 cells); type: cell-based; conditions: 2.18 mM EGCG co-incubated 1, 2, 4 and 8 minutes at room temperature; Vero-E6, 48 hours
Description: In this experimental example, SARS-CoV-2 BJ-01 virus was provided by the Military Veterinary Research Institute, Academy of Military Medical Sciences, Academy of Military Sciences, and its Accession Number at NCBI was MT291831; Vero-E6 cells were provided by the Military Veterinary Research Institute, Academy of Military Medical Sciences, Academy of Military Sciences; and the culture medium was Dulbecco's Modified Eagle Medium, purchased from Thermo Scientific, catalog number: C11995500BT.
The incubation of drug EGCG with SARS-CoV-2 BJ-01 virus in the culture medium was designed according to the time gradient, in which the incubation time was: 1 minute, 2 minutes, 4 minutes, 8 minutes, the EGCG concentration in the incubation system was 1 mg/mL (2.18 mM), and the virus titer in the incubation system was 10^7 TCID50. After incubation, the incubation system was diluted 10 times and used to infect Vero-E6 cells. After 48 hours, the Ct value of the cell supernatant was detected.

[3] = 1 mM EGCG, PR8 virus, 5 minutes
[4] = 5 mM EGCG, PR8 virus, 5 minutes

Compound: O=C(O[C@@H]1Cc2c(O)cc(O)cc2O[C@@H]1c1cc(O)c(O)c(O)c1)c1cc(O)c(O)c(O)c1 [EGCG, Epigallocatechin gallate]
- CPE test (virus replication in the cell wells) ([1]; 1 mM EGCG + virus, PR8, 1 minute, first experiment, dilution factor 10^3, wells 1-10): +
- CPE test (virus replication in the cell wells) ([1]; 1 mM EGCG + virus, PR8, 1 minute, first experiment, dilution factor 10^4, wells 1-10): +
- CPE test (virus replication in the cell wells) ([1]; 1 mM EGCG + virus, PR8, 1 minute, first experiment, dilution factor 10^5, wells 1-10): +
- CPE test (virus replication in the cell wells) ([1]; 1 mM EGCG + virus, PR8, 1 minute, first experiment, dilution factor 10^6, wells 1-10): + and −
- CPE test (virus replication in the cell wells) ([1]; 1 mM EGCG + virus, PR8, 1 minute, first experiment, dilution factor 10^7, wells 1-10): −
- CPE test (virus replication in the cell wells) ([1]; 1 mM EGCG + virus, PR8, 1 minute, first experiment, dilution factor 10^8, wells 1-10): −
- CPE test (virus replication in the cell wells) ([1]; 1 mM EGCG + virus, PR8, 1 minute, second experiment, dilution factor 10^1, wells 1-10): +
- CPE test (virus replication in the cell wells) ([1]; 1 mM EGCG + virus, PR8, 1 minute, second experiment, dilution factor 10^2, wells 1-10): +
- CPE test (virus replication in the cell wells) ([1]; 1 mM EGCG + virus, PR8, 1 minute, second experiment, dilution factor 10^3, wells 1-10): +
- CPE test (virus replication in the cell wells) ([1]; 1 mM EGCG + virus, PR8, 1 minute, second experiment, dilution factor 10^4, wells 1-10): +
- CPE test (virus replication in the cell wells) ([1]; 1 mM EGCG + virus, PR8, 1 minute, second experiment, dilution factor 10^5, wells 1-10): +
- CPE test (virus replication in the cell wells) ([1]; 1 mM EGCG + virus, PR8, 1 minute, second experiment, dilution factor 10^6, wells 1-10): − and +
- CPE test (virus replication in the cell wells) ([1]; 1 mM EGCG + virus, PR8, 1 minute, second experiment, dilution factor 10^7, wells 1-10): −
- CPE test (virus replication in the cell wells) ([1]; 1 mM EGCG + virus, PR8, 1 minute, second experiment, dilution factor 10^8, wells 1-10): −
- inactivation efficiency against the virus ([1]; 1 mM EGCG, PR8 virus, 1 minute): 87.41% and 80.05%
- average inactivation efficiency against virus ([1]; 1 mM EGCG, PR8 virus, 1 minute): 82.50%
- inactivation efficiency against the virus [1, 3]: 87.41% and 84.15% and 90.00%
- average inactivation efficiency against virus [1, 3]: 87.19%
- CPE test, virus replication in cell wells (wells 1-10) ([1]; 5 mM EGCG + PR8 virus, 5 minutes, third experiment, dilution factor 10^4): + and −
- CPE test, virus replication in cell wells (wells 1-10) ([1]; 5 mM EGCG + PR8 virus, 5 minutes, third experiment, dilution factor 10^5): − and +
- CPE test, virus replication in cell wells (wells 1-10) ([1]; 5 mM EGCG + PR8 virus, 5 minutes, third experiment, dilution factor 10^6): −
- CPE test, virus replication in cell wells (wells 1-10) ([1]; 5 mM EGCG + PR8 virus, 5 minutes, third experiment, dilution factor 10^7): −
- CPE test, virus replication in cell wells (wells 1-10) ([1]; 5 mM EGCG + PR8 virus, 5 minutes, third experiment, dilution factor 10^8): −
- CPE test (virus replication in the cell wells) ([1]; 5 mM EGCG + PR8 virus, co-incubated 1 minute, third experiment, dilution factor 10^4, wells 1-10): +
- CPE test (virus replication in the cell wells) ([1]; 5 mM EGCG + PR8 virus, co-incubated 1 minute, third experiment, dilution factor 10^5, wells 1-10): + and −
- CPE test (virus replication in the cell wells) ([1]; 5 mM EGCG + PR8 virus, co-incubated 1 minute, third experiment, dilution factor 10^6, wells 1-10): − and +
- CPE test (virus replication in the cell wells) ([1]; 5 mM EGCG + PR8 virus, co-incubated 1 minute, third experiment, dilution factor 10^7, wells 1-10): −
- CPE test (virus replication in the cell wells) ([1]; 5 mM EGCG + PR8 virus, co-incubated 1 minute, third experiment, dilution factor 10^8, wells 1-10): −
- CPE test (virus replication in the cell wells) ([1]; 5 mM EGCG + PR8 virus, co-incubated 5 minutes, first experiment, dilution factor 10^4, wells 1-10): −
- CPE test (virus replication in the cell wells) ([1]; 5 mM EGCG + PR8 virus, co-incubated 5 minutes, first experiment, dilution factor 10^5, wells 1-10): −
- CPE test (virus replication in the cell wells) ([1]; 5 mM EGCG + PR8 virus, co-incubated 5 minutes, first experiment, dilution factor 10^6, wells 1-10): −
- CPE test (virus replication in the cell wells) ([1]; 5 mM EGCG + PR8 virus, co-incubated 5 minutes, first experiment, dilution factor 10^7, wells 1-10): −
- CPE test (virus replication in the cell wells) ([1]; 5 mM EGCG + PR8 virus, co-incubated 5 minutes, first experiment, dilution factor 10^8, wells 1-10): −
- CPE test (virus replication in the cell wells) ([1]; 5 mM EGCG + virus, PR8, 1 minute, first experiment, dilution factor 10^4, wells 1-10): + and −
- CPE test (virus replication in the cell wells) ([1]; 5 mM EGCG + virus, PR8, 1 minute, first experiment, dilution factor 10^5, wells 1-10): − and +
- CPE test (virus replication in the cell wells) ([1]; 5 mM EGCG + virus, PR8, 1 minute, first experiment, dilution factor 10^6, wells 1-10): −
- CPE test (virus replication in the cell wells) ([1]; 5 mM EGCG + virus, PR8, 1 minute, first experiment, dilution factor 10^7, wells 1-10): −
- CPE test (virus replication in the cell wells) ([1]; 5 mM EGCG + virus, PR8, 1 minute, first experiment, dilution factor 10^8, wells 1-10): −
- CPE test (virus replication in the cell wells) ([1]; 5 mM EGCG + virus, PR8, 1 minute, second experiment, dilution factor 10^4, wells 1-10): − and +
- CPE test (virus replication in the cell wells) ([1]; 5 mM EGCG + virus, PR8, 1 minute, second experiment, dilution factor 10^5, wells 1-10): − and +
- CPE test (virus replication in the cell wells) ([1]; 5 mM EGCG + virus, PR8, 1 minute, second experiment, dilution factor 10^6, wells 1-10): −
- CPE test (virus replication in the cell wells) ([1]; 5 mM EGCG + virus, PR8, 1 minute, second experiment, dilution factor 10^7, wells 1-10): −
- CPE test (virus replication in the cell wells) ([1]; 5 mM EGCG + virus, PR8, 1 minute, second experiment, dilution factor 10^8, wells 1-10): −
- inactivation efficiency against the virus ([1]; 5 mM EGCG, PR8 virus, 1 minute): 99.50% and 99.60% and 93.69%
- average inactivation efficiency against virus ([1]; 5 mM EGCG, PR8 virus, 1 minute): 97.60%
- residual virus titer of EGCG+virus group (Karber method) [1, 4]: 10^4 TCID50/50 μL
- inactivation efficiency against the virus [1, 4]: 99.92% and 99.75% and 99.60%
- average inactivation efficiency against virus [1, 4]: 99.76%
- bioavailability of EGCG [2]: 0.1%
- number of live viruses (virus copy number in cell supernatant) (SARS-CoV-2 BJ-01 virus): significantly reduced
